One experiment deals with mTOR pathway. Description: Western blot of mTOR pathway effectors in osteosarcoma line MG63. The class given is cell-based, human. Conditions: MG63, Zol (1 μM) for 72 h, n=3. As for the experimental part:
(B) A representative example of human mesenchymal stem cells (MSC) and human osteosarcoma cell line MG63 cultured in presence or absence of Zol (1 μM) for 72 h and assessed for the expression of phosphorylated (Ser 473) AKT, AKT, phosphorylated p70S6K p70S6K and GAPDH by western blot;
Protein lysates (50 μg) were diluted in equal volume of 2× Laemmli buffer (Gibco) containing Dithiothreitol (DTT, Sigma,UK). The samples were heated at 95° C. for 5 minutes and loaded on a 12% Tris-glycine gel. After electro-blotting, membranes were blocked with 5% Bovine serum albumin (BSA) in 0.1% Tween 20 in PBS (PBS-T) for detection of glyceraldehyde-3-phosphate dehydrogenase (GAPDH) and 5% dry milk in PBS-T for detection of unprenylated RAP1A (Santacruz Biotechnology, Santa Cruz, USA). […] Detection was carried out using enhanced chemi-luminescence plus ECL reaction kit (GE Healthcare, Buckinghamshire, UK) and quantification of protein expression was carried out using image J software.
To test this, the inventors assessed the phosphorylation state of two effectors downstream of TORC1 and TORC2, p-P70S6K and pAKT (Ser473) respectively (FIG. 7A), in hMSC in presence or absence of Zol. […]
(Immunoblotting shows a protein as a band on a membrane.)

Experiment [1] relates to murine multiple myeloma line, 5TGM1. Nature of the experiment: γH2AX DNA damage foci in 5TGM1 multiple myeloma line after irradiation. Conditions: irradiated in presence versus absence of Zol, 4 h after irradiation, n=3. The class given is cell-based.
In experiment [2] the test system is intestinal crypt and villi. Nature of the experiment: Murine intestine regeneration following irradiation. In kind it is in vivo, C57BL6/J mice. Conditions: Zol 125 μg/kg i.p. 3 days prior to 9Gy. The method, then:
Mice (C57BL6/J) were injected with either Zoledronate (single dose, i.p.,125 μg/kg) or PBS. On day 3 post-injection, Mice were exosed to whole body irradiation (9Gy; n=3/group) using 137Cs Gamma source. Within 24 hours from irradiation systemic bone marrow transplantation was performed to prevent myelotoxicity. mice were sacrificed 4 days post-irradiation for histological analysis of
Intestinal tissue. At the time of harvest this was divided with a scalpel into duodenum, ileum-jejunum, colon and rectum, and each region was further cut into 0.5 cm pieces that were placed in histological cassettes and stored in 70% ethanol prior to embedding. Tissues were paraffin embedded and sectioned at 3-5 μm thickness and mounted onto […] coated glass microscope slides. The slides were de-waxed in xylene (BDH, Leister, UK) and rehydrated by passing through a series of ethanol dilutions. The nuclei were stained by placing in Gill's haematoxylin (Sigma, Poole, UK), washed with water followed by staining of cytoplasm in alcoholic eosin (Sigma, Poole, UK) and washed. Slides were dehydrated through a series of graded alcohols and cleared in xylene for 3 minutes prior to mounting with DPX and coverslip to examine under microscope. Stained tissue sections were scanned on the Aperio Slide Scanner (Leica Biosystems, Newcastle, UK). To obtain villi length and crypt depth, images were analysed on the Aperio ImageScope Software (v11.2.0.780) and using the ruler tool, measurements were taken on a surface of 0.525 mm^2 at 3 different levels.

For experiment [3], the system named is human mesenchymal stem cells (hMSC). Nature of the experiment: Colony Forming Unit-Fibroblast assay (CFU-F), clonogenic ability of hMSC. In kind it is cell-based. To be noted: 14 days, listed as Zol. The method, then:
Human MSC from established cultures were plated at 10 cells/cm^2 in duplicates in MSC medium. The plates were incubated for 14 days at 37° C. in 5% carbon dioxide in air. At day 14 cultures were stained with Wright's Giemsa stain (VWR International, Leicestershire, UK). Briefly, media was aspirated and the plates were washed with PBS (Gibco). The plates were air dried for 5 minutes and fixed with methanol (Fisher Scientific, Loughborough, UK) for 5 minutes. Wright's Geimsa stain (VWR International) was thereafter added to the plates for 5 minutes and then plates were washed under running tap water. The purple stained colonies were counted using an inverted light microscope (Leica Microsystems, UK). Colonies containing a minimum of 50 cells were considered as one Colony forming unit-fibroblast (CFU-F).

A further experiment deals with unprenylated Rap1A. Nature of the experiment: Western blot of unprenylated Rap1A in hMSC. To be noted: hMSC exposed to increasing amounts of Zol. The class given is cell-based, human. The method, then: Three times 10^6 hMSC were lysed in mammalian cell lysis buffer (Mammalian cell lysis kit, Sigma-Aldrich, Dorset, UK) containing 250 mM Tris-5 mM EDTA, 750 mM sodium chloride, 0.5% sodium dodecyl sulphate, 2.5% deoxycholic acid and 5% Igepal supplemented with 10 μl of Proteinase inhibitors cocktail (Sigma-Aldrich, Dorset, UK) containing 4-(2-aminoethyl) benzenesulfonyl fluoride (AEBSF), pepstatin A, bestatin, leupeptin, aprotinin and trans-epoxysuccinyl-L-leucyl-amido(4-guanidino)-butane (E-64) according to manufacturer instruction. Phosphatase inhibitor cocktail (Sigma) was also added when preparing lysates for the detection of AKT, pAKT, P70S6K, and p-P70S6K.
Protein lysates (50 μg) were diluted in equal volume of 2× Laemmli buffer (Gibco) containing Dithiothreitol (DTT, Sigma,UK). The samples were heated at 95° C. for 5 minutes and loaded on a 12% Tris-glycine gel. […] Detection was carried out using enhanced chemi-luminescence plus ECL reaction kit (GE Healthcare, Buckinghamshire, UK) and quantification of protein expression was carried out using image J software.
(FPPS) enzyme in the mevalonate pathway and thereby reducing prenylation of small GTPases, such as Rap, Rac, Rho, Rheb (FIG. 3A). […] To this end, levels of unprenylated Rap1A were measured in hMSC exposed to increasing amounts of Zol.

Setting [4] is: assessed 4 days later, n=3/group.

“Also recorded” adds a separate entry of the source.

For `O=P(O)(O)C(O)(Cn1ccnc1)P(=O)(O)O` [Zoledronate], in the experiment on mTOR pathway, the p-P70S6K entry is given as “no significant difference” and the “pAKT (Ser473)” value was “no significant difference”. Moreover, the “number of γH2AX DNA damage foci” value in experiment [1] is recorded as “No significant difference”. Also, the “protection of intestinal crypt and villi following irradiation” value in experiment [2] was “protects intestinal crypt and villi”. Further, in experiment [2] (setting [4]), the intestinal crypt depth entry is on record as “improved” and the villi length result was “improved”. Also, in experiment [3] (hMSC at passage 8, not irradiated, versus PBS control), the “number of clonogenic progenitors (CFU-F)” value is reported as “significant increase; also recorded: higher clonogenic ability”. In addition, the “number of CFU-F after irradiation (clonogenic ability)” value in experiment [3] (hMSC irradiated at 1, 3 and 5Gy versus non irradiated, in presence of Zol) was “no significant difference; also recorded: complete rescue of the clonogenic ability”. Moreover, the “expression of unprenylated Rap1A” value with unprenylated Rap1A was “increased expression”.

The record behind these values is US20160039852A1, “THERAPEUTIC USES OF BISPHOSPHONATES” (THE UNIVERSITY OF SHEFFIELD, priority 2013, published 2016).
